Values of other authors, collected in US20240277629A1, “USE OF THYROID HORMONE T4 IN A HIGH VERSATILITY TREATMENT IN PATIENTS TAKING PROTON PUMP INHIBITORS” (ALTERGON S.A., priority 2021, published 2024).

Conditions: patients under therapy with PPIs (Centanni et al. 2006)

- Increase of daily dose of T4 needed to obtain the desired blood levels of thyroid hormone: 37%
Compound: N[C@@H](Cc1cc(I)c(Oc2cc(I)c(O)c(I)c2)c(I)c1)C(=O)O [T4, levothyroxine]
